Experimental data published in US20230295152A1 (SENDA BIOSCIENCES, INC., priority 2019, published 2023).

Tests used:
CYP2D6 = molecular target: T1, CYP2D6 (Homo sapiens, UniProt P10635); test: CYP Inhibition Assay in human liver microsomes, CYP2D6; assay type: in vitro ADME; settings: pH 7.4
T1 construct: from tissue; host or cells: human liver microsomes (HLM)
Protocol: Stock solutions of test compounds were prepared in DMSO at the concentrations of 10 mM. Stock solution was diluted to 2 mM with acetonitrile. The final concentration of test compounds was 10 μM. For the stock solution preparation, if the positive control could not be well dissolved in the mixture of DMSO and acetonitrile (1:4) at the highest concentration, another mixture of acetonitrile and DMSO, the mixture of acetonitrile and H2O or DMSO will be used to dissolve the compound.
The substrate solutions are stored in a −20° C. freezer and warmed to room temperature prior to use.
Preparation of Phosphate Buffer (100 mmol/L, pH 7.4): To prepare the Solution A, 7.098 g of disodium hydrogen phosphate were weighed out and added into 500 mL of pure water, then sonicated to dissolve the content. To prepare the Solution B, 3.400 g of potassium dihydrogen phosphate were weighed out and added into 250 mL of pure water, then sonicated to dissolve the content. Solution A was placed on a stirrer and slowly Solution B was added into Solution A until the pH reached 7.4. Preparation of 10 mmol/L NADPH Solution: NADPH was dissolved at 8.334 mg/mL in phosphate buffer; the solution was freshly prepared prior to use.
The master solution was prepared according to Table 45. The incubation was carried out in 96 deep well plates. The following volumes were dispensed into each well of the incubation plate: 179 μL of the substrate and HLM mixture in phosphate buffer, 1 μL of the compound working solution, or vehicle (mixture of DMSO and acetonitrile (1:4)). The incubation plate was placed into the water bath and pre-warmed at 37° C. for 15 minutes before the reactions was started by the addition of 20 μL of 10 mmol/L NADPH solution in phosphate buffer. After the addition of NADPH, the incubation plate was incubated at 37° C. for corresponding time. The assay was performed in duplicate.
The reaction was quenched by the addition of 1.5 volume (300 μL) of cold acetonitrile containing 3% formic acid and internal standards (200 nM Labetalol, 200 nM Alprazolam and 200 nM tolbutamide). The plate was centrifuged at 3,220 g for 40 minutes. 100 μL of the supernatant was transferred to a new plate. The supernatant was diluted with 100 μL pure water. The samples were mixed well and analyzed using UPLC/MS/MS.
Data Analysis: The automatic peak integration areas are checked for all the samples. The Analyte Peak Area and Internal Standard Peak Area are exported into excel spreadsheet. The inhibition of each P450 enzyme in human liver microsomes is measured as the percentage decrease in the activity of marker metabolite formation compared to non-inhibited controls (=100% activity).
The percentage of remaining activity was calculated as follows:
Area Ratio=Peak Area Analyte/Peak Area Internal Standard Remaining Activity (%)=Area Ratio test compound/Area Ratio vehicle*100% Inhibition %=100-Remaining Activity (%)

hERG channels = molecular target: T2, hERG channels (Homo sapiens, UniProt Q12809); test: hERG Inhibition Assay, patch clamp in hERG stably expressed HEK 293 cell line; assay type: cell-based; settings: read-out: hERG channel: IC50
T2 construct: host or cells: HEK 293
Protocol: hERG stably expressed HEK 293 cell line (Cat #K1236) was purchased from Invitrogen. The cells are cultured in 85% DMEM, 10% dialyzed FBS, 0.1 mM NEAA, 25 mM HEPES, 100 U/mL Penicillin-Streptomycin and 5 μg/mL Blasticidin and 400 μg/mL Geneticin. Cells are split using TrypLE™ Express about three times a week and maintained between ˜40% to ˜80% confluence. Before the assay, the cells were onto the coverslips at 5×10^5 cells/per 6 cm cell culture dish and induced with doxycycline at 1 μg/mL for 48 hours.
External solution (in mM): 132 NaCl, 4 KCl, 3 CaCl2), 0.5 MgCl2, 11.1 glucose, and 10 HEPES (pH adjusted to 7.35 with NaOH). Internal solution (in mM): 140 KCl, 2 MgCl2, 10 EGTA, 10 HEPES and 5 MgATP (pH adjusted to 7.35 with KOH). Working solution preparation for test compound: test compounds were initially prepared in DMSO with final concentration of 10 mM as stock solution. Stock solution of each compound was serial-diluted by ratio of 1:3 with DMSO to prepare additional 3 intermediate solutions including 3.33, 1.11 and 0.37 mM.
Before performing the hERG assay, the working solutions were prepared by dilution of 10, 3.33, 1.11, and 0.37 mM intermediate solutions in 1000 folds using extracellular solution, while 30 μM working solution was prepared by 333.333-folds dilution of 10 mM DMSO stock. so that the final concentration of working solution was 30, 10, 3.33, 1.11 and 0.37 μM. The final DMSO concentration in working solutions was maintained in range of 0.1-0.3% (v/v).
Experimental procedure: the coverslip was removed from the cell culture dish and placed it on the microscope stage in bath chamber. A desirable cell was located using the ×10 objective. The tip of the electrode was located under the microscope using the ×10 objective by focusing above the plane of the cells. Once the tip was in focus, the electrode was advanced downwards towards the cell using the coarse controls of the manipulator, while simultaneously moving the objective to keep the tip in focus. When directly over the cell, the fine controls of the manipulator were used to approach the surface of the cell in small steps, by using the ×40 objective. Gentle suction was applied through the side-port of the electrode holder to form a gigaohm seal.
Cfast was used to remove the capacity current that is in coincidence with the voltage step. The whole cell configuration was obtained by applying repetitive, brief, strong suction until the membrane patch has ruptured. membrane potential was set to −60 mV at this point to ensure that hERG channels were not open. The spikes of capacity current was then cancelled using the Cslow on the amplifier.
Holding potential was set to −90 mV for 500 ms; current was recorder at 20 kHz and filtered at 10 kHz. Leaking current was tested at −80 mV for 500 ms.
The hERG current was elicited by depolarizing at +30 mV for 4.8 seconds and then the voltage was taken back to −50 mV for 5.2 seconds to remove the inactivation and observe the deactivating tail current. The maximum amount of tail current size was used to determine hERG current amplitude. Current was recorded for 120 seconds to assess current stability. Only stable cells with recording parameters above threshold were proceeded with further drug administrations. Vehicle control was applied to the cells to establish the baseline. […] For dose response testing, 5 doses of test compound was applied to the cells cumulatively from low to high concentrations. In order to ensure the good performance of cultured cells and operations, the positive control, Dofetilide, with 5 doses was also used to test the same batch of cells.
The following criteria were used to determine data acceptability: initial seal resistance>1 GΩ; leak currents<50% of the control peak tail currents at any time; the peak tail amplitude>300 pA; membrane resistance Rm>500 MΩ; access resistance (Ra)<15 MΩ; apparent run-down of peak current<2.5% per min. […]

T1 sequence (P10635 whole entry): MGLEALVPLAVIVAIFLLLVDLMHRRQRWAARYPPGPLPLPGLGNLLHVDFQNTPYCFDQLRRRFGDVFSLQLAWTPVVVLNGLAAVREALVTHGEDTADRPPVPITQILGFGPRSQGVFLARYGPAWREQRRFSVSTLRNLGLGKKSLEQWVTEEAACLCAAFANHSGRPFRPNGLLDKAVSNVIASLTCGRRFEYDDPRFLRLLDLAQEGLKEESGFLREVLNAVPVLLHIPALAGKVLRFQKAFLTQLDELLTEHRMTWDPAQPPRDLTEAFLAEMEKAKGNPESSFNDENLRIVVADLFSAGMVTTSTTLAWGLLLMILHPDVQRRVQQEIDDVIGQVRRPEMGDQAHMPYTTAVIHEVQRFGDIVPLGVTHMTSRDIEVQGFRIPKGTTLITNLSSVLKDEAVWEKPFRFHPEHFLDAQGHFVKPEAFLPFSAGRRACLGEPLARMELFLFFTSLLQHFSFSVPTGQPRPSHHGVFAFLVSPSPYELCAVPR
T2 sequence (Q12809 whole entry): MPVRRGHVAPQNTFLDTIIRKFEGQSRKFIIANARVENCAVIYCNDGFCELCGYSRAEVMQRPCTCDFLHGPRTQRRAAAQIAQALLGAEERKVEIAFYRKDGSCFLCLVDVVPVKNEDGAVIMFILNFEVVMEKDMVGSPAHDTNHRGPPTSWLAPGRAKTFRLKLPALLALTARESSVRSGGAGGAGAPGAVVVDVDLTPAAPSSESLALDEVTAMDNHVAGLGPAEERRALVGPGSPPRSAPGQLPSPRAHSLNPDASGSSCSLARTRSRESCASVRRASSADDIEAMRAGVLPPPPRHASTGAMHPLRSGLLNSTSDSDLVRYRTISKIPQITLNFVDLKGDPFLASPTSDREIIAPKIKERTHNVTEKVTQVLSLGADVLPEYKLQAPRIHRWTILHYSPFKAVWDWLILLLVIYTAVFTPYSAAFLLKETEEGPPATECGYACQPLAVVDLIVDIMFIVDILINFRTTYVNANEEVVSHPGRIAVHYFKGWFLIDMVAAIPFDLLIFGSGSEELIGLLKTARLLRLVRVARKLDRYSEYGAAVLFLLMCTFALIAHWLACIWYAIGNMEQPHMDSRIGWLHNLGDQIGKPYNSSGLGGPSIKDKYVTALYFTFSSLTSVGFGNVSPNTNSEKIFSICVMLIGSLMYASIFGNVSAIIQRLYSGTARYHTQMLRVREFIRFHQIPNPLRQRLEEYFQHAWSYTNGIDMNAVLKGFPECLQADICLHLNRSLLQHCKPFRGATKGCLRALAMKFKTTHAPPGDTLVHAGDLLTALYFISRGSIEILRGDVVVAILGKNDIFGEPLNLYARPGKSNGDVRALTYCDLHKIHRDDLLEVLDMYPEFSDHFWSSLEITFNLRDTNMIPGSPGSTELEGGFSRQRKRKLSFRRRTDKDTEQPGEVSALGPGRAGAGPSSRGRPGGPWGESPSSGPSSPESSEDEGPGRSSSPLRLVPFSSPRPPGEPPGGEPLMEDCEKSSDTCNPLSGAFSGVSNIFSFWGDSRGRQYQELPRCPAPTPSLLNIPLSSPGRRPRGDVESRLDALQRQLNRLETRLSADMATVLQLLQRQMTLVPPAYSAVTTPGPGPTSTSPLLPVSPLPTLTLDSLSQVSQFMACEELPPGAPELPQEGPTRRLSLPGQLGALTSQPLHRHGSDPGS

Structure (SMILES)	inhibition at 10 µM (CYP2D6)	IC50 (hERG channels)
C[C@@H](CO)n1cnc2c(-c3cccc(F)c3)nc(-c3ccc(Cl)cc3)cc2c1=O [Compound 7]	6.78%	> 30 µM
CC(C)(O)Cn1cnc2c(-c3cccnc3)nc(-c3ccc(C(F)(F)F)nc3)cc2c1=O [Compound 9]	7.19%	12.1 µM
C[C@@H](CO)n1cnc2c(-c3cnn(C)c3)nc(-c3ccc(Cl)cc3)cc2c1=O [Compound 27]	8.96%	> 10 µM
C[C@H](n1cnc2c(-c3cnn(C)c3)nc(-c3ccc(Cl)cc3)cc2c1=O)C(C)(C)O [Compound 30]	11.2%	> 30 µM
C[C@@H](CO)n1cnc2c(-c3cccnc3)nc(-c3ccc(C(F)(F)F)cn3)cc2c1=O [Compound 46, (S)-3-(1-hydroxypropan-2-yl)-8-(pyridin-3-yl)-6-(5-(trifluoromethyl)pyridin-2-yl)pyrido[3,4-d]pyrimidin-4(3H)-one]	7.43%	8.63 µM
Cn1cc(-c2nc(-c3ccc(C(F)(F)F)nc3)cc3c(=O)n(CC(C)(C)O)cnc23)cn1 [Compound 60]		> 30 µM
O=c1c2cc(-c3ccc(Cl)cc3)nc(-c3cccnc3)c2ncn1[C@H]1COC[C@@H]1O [Compound 125, 6-(4-chlorophenyl)-3-((3S,4R)-4-hydroxytetrahydrofuran-3-yl)-8-(pyridin-3-yl)pyrido[3,4-d]pyrimidin-4(3H)-one]	20.6%	7.67 µM
CC(C)(O)Cn1cnc2c(-n3ccnc3)nc(-c3ccc(C(F)(F)F)cn3)cc2c1=O [Compound 160, 3-(2-hydroxy-2-methylpropyl)-8-(1H-imidazol-1-yl)-6-(5-(trifluoromethyl)pyridin-2-yl)pyrido[3,4-d]pyrimidin-4(3H)-one]		11.5 µM

Second part, led by results:

inhibition at 10 µM (CYP2D6)	Structure (SMILES)	IC50 (hERG channels)
8.45%	C[C@@H](CO)n1cnc2c(-c3cccnc3)nc(-c3ccc(C(F)(F)F)nc3)cc2c1=O [Compound 12]	> 10 µM
15.6%	CC(C)(O)Cn1cnc2c(-c3cccnc3)nc(-c3ccc(C(F)(F)F)cc3)cc2c1=O [Compound 16]	4.31 µM
12.1%	CC(C)(O)Cn1cnc2c(-c3cccnc3)nc(-c3ccc(Cl)cc3)cc2c1=O [Compound 18]	5.28 µM
10.9%	C[C@@H](CO)n1cnc2c(-c3cnn(C)c3)nc(-c3ccc(C(F)(F)F)nc3)cc2c1=O [Compound 68]	> 30 µM
7.27%	C[C@@H](CO)n1cnc2c(-c3cccnc3)nc(-c3ccc(C4CC4)nc3)cc2c1=O [Compound 74]	4.84 µM
8%	O=c1c2cc(-c3ccc(C(F)(F)F)nc3)nc(-c3cccnc3)c2ncn1[C@@H]1COC[C@H]1O [Compound 79]	> 30 µM
8.7%	Cn1cc(-c2nc(-c3ccc(C(F)(F)F)cn3)cc3c(=O)n(CC(C)(C)O)cnc23)cn1 [Compound 103, 3-(2-hydroxy-2-methylpropyl)-8-(1-methyl-1H-pyrazol-4-yl)-6-(5-(trifluoromethyl)pyridin-2-yl)pyrido[3,4-d]pyrimidin-4(3H)-one]	> 10 µM
2.73%	CC(C)(O)Cn1cnc2c(-c3cccnc3)nc(-c3ccc(C(F)(F)F)cn3)cc2c1=O [Compound 105]	11.8 µM
